# Tested on: HCT116
# Assay: CellTiter-Glo cell proliferation inhibition, HCT116
# Format: cell-based
# Conditions: Homo sapiens, HCT-116; HCT116 (colorectal cancer cell line), 72 hours; read-out: Example IC50 (µM) HCT116
# Text: This experiment used the CellTiter-Glo® Luminescent Cell Viability Assay kit from Promega to evaluate the inhibitory activity of the disclosed compounds on the proliferation of the following cell lines: 4T1 (mouse breast cancer cell line), A20 (mouse B-cell lymphoma cell line), A2780 (human ovarian cancer cell line), AsPC-1 (pancreatic cancer cell line), B16F10 (mouse melanoma cell line), BT549 (human breast cancer cell line), CT26 (mouse colon cancer cell line), EMT6 (mouse breast cancer cell line), HCT116 (colorectal cancer cell line), Jurket (acute leukemia cell line), KP-4 (pancreatic cancer cell line), LL/2 (mouse lung cancer cell line), MCF7 (breast cancer cell line), […] NCI-H358 (lung cancer cell line), NCI-H727 (gastric cancer cell line), NCI-1944 (lung cancer cell line), Pan 04.03 (pancreatic cancer cell line), SK-BR-3 (breast cancer cell line), THP-1 (leukemia cell line), TOV21G (ovarian cancer cell line), U87MG (glioblastoma cell line), and UM-UC-a (bladder cancer cell line).
# All cell lines were purchased from Nanjing Kebai Biotechnology Co., Ltd. The following materials were also used in the experiment: RPMI-1640 media (HyClone, catalog number #SH30022.01), McCoy's 5A media (Thermo Fisher, catalog number #16600-082), MCDB 105 media (Sigma, catalog number #117-500), Medium 199 (Thermo Fisher, catalog number #11150-059), MEM media (Thermo Fisher, catalog number #11095-080), DMEM media (HyClone, catalog number #SH30027.01), fetal bovine serum (FBS) (ExCell, catalog number # M4530), Sodium Pyruvate (100Mm) (Thermo Fisher, catalog number #11360-070), and MEM NEAA (100X) (Thermo Fisher). […]
# Cells were cultured according to the instructions provided by the cell supplier (Nanjing Kebai Biotechnology Co., Ltd.). […] Suspension or adherent cells were collected, and cell viability was determined using the trypan blue exclusion method, ensuring that cell viability was above 90%. […]
row,IC50 [µM],SMILES
1,0.111,O=C(Nc1ccc(-c2csc(CO)c2)cc1)C(=O)Nc1ccc(-c2cc3cc(F)c(-c4nnn[nH]4)cc3n2C2CCC2)cc1 [Example 1]
2,0.078,CC1(n2c(-c3ccc(NC(=O)C(=O)Nc4ccc(N5CCC6(CCOC6)CC5)cc4)cc3)cc3cc(F)c(-c4nnn[nH]4)cc32)CCC1 [Example 68]
3,0.044,O=C(Nc1ccc(-c2cc3cc(F)c(-c4nnn[nH]4)cc3n2C2CCC2)cc1)C(=O)Nc1ccc(N2CCC3(CCC(O)C3)CC2)cc1 (stereo not drawn) [Example 100]

# From EP4741383A1, “COMPOUND AND USE THEREOF AS ANTI-CANCER DRUG” (Tyligand Bioscience (Shanghai) Limited, priority 2023, dated 2025)
